Assay results taken from US11534457B2, “Use of dextran sulfate” (priority 2017, dated 2022).

Legend:
human motor neurons = experiment: PI staining (DNA content, cell cycle, cell numbers, apoptotic fraction), Acumen cytometry; type: cell-based; conditions: 0.01 and 0.1 mg/ml
Experimental: The study aims were to evaluate the effect of LMW-DS on cell survival and expression of differentiation proteins in three cell types, cerebral cortical neurons, motor neurons and Schwann cells, using two concentrations 0.01 and 0.1 mg/ml of LMW-DS.
Neurons were cultured as 40,000 cells per well and Schwann cells 3,000 cells per. Cells were treated after 24 hours. The number of cells per well depended on the growth phenotype, proliferative capacity, etc.
NeuroBlast was pre-warmed to 37° C. Cells were thawed in a 37° C. water bath for no longer than 2 min. 1 ml of media was gently added drop-wise. Cells were resuspended and transferred to a 15 ml tube containing 9 ml of medium. Cells were centrifuged at 200 relative centrifugal force (RCF) for 5 min. Pellet was resuspended in 5 ml of medium and cells were counted with the Cellometer. 40,000 cells per well were seeded in previously coated 96-well plates. Cells were incubated at 37° C. with 5% CO2. Cells were allowed to settle for 24 hours before drug treatment. After 24 hours NeuroBlast medium was replaced with MotorBlast medium (Lonzo).
LMW-DS was prepared in the culture media of choice for each cell line and added to the respective wells in the doses 0.01 and 0.1 mg/ml. For cell survival assays cells were analyzed after 24 and 48 hours in eight identical wells/dose/time point. Differentiation and protein expression assay was analyzed after 48 hours, also in octuplicates.
Cells were fixated in the wells. Propidium iodine was used for viability assay. For immunohistochemical analysis, neurons were stained with βIII-tubulin, which is a tubulin specific for neurons. Schwann cells were stained for Myelin Basic Protein (MBP). For the negative controls PBST (0.1% Triton-X-100 in PBS) was applied instead of primary antibodies.
The Acumen cytometer allows the direct cytometric analysis of attached cells without prior detachment. […] The protein content of the cells can also be directly measured and expressed as either ‘total protein content’ or ‘mean protein content’.

[1] = system: Mouse cortical neurons (Lonza); experiment: Gene expression array and pathway analysis, cortical neurons; type: cell-based; conditions: 0.01 mg/ml, 48 h
Experimental: For each cell line, n=8×25 cm^2 culture flasks were set up. Two flasks were harvested for each cell type on the day of treatment (24 hours after seeding). This represents the Day0 time point. From the remaining flasks, three flasks were treated with Control Medium and three were treated with Culture Medium (CM) containing LMW-DS to give a final concentration of 0.01 mg/ml. Cells from the treated flasks were collected after 48 hours. Therefore the collected data represent (a) untreated cells (Day0 Controls and Day2 Controls) and (b) cells treated with LMW-DS for 48 hours (Day2 LMW-DS treated).
25 cm^2 flasks were coated by adding 2 ml per flask of a solution of 50 μg/ml poly-d-lysine in Hank's balanced salt solution (HBSS) and incubating overnight at 37° C. in the dark. Flasks were washed with cell culture water and air-dried for 30 min in the dark. Flasks were coated by adding 1 ml per flask of a solution of 25 μg/ml laminin in phosphate-buffered saline (PBS) and incubating for 2 hour at 37° C. in the dark. The laminin flasks were washed with PBS three times before plating cells.
Medium was prepared by adding 10 ml B-27 Serum-Free Supplement and 2.5 ml GlutaMAX™-1 Supplement to 500 ml of Neurobasal medium. The medium was pre-warmed to 37° C. Cells from 12 vials were thawed sequentially in a 37° C. water bath for no longer than 2 min and gently transferred into a 15 ml tube. 9 ml of medium was gently added drop-wise to each. The cell suspension was mixed by inverting the tubes carefully twice.
The cells were centrifuged for 5 minutes at 200×g. Supernatant was removed (to the last 0.5 ml) and cells were gently resuspended by trituration. The cells from the 12 vials were mixed and distributed equally into the previously coated 25 cm^2 flasks (n=8). Cells were incubated at 37° C. with 5% CO2 for 24 hours.
LMW-DS was provided at a stock concentration of 20 mg/ml and was kept in a temperature monitored refrigerator at 4° C. A fresh […]LMW-DS stock (1.0 mg/ml) was prepared in sterile DMEM-F12. The concentrated drug stock was sterile filtered and added to the respective culture media (19.6 ml CM and 0.4 ml LMW-DS stock solution). The Control was made using 19.6 ml CM and 0.4 ml of DMEM-F12. LMW-DS and CM were added to the respective flasks (5 ml each) to reach the 0.01 mg/ml concentration of LMW-DS in each dish with a total of 10 ml CM each.
CM was aspirated into a clean and labelled 15 ml Falcon tube. The flasks (without culture medium) were placed into the −80° C. freezer for 30 minutes. The CM in the Falcon tubes were spun at 3000×g for 5 minutes. Supernatant was removed and the small pellet was re-suspended in 2.5 ml Trizol:Water (4:1) solution at room temperature (RT, […]).
Two aliquots of 1 ml lysate was removed from each sample and 200 μl of chloroform was added to each (0.2 ml of chloroform per 1 ml of TRIzol Reagent used during the cell lysis step) and the tube was shaken vigorously. Samples were stored at RT for 2-3 minutes and subsequently centrifuged at 12,000×g for 15 minutes at 4° C.
The expression data were downloaded into separate files for each cell line. The ‘Background corrected’ expression is the data from the “gProcessedSignal” of the arrays that is the result of the background signal extracted from the actual signal of the relevant probe. This is the most often used variable in array analysis. The background corrected signal was log 2 transformed for all samples for statistical analysis. To reduce the false discovery rate in the samples, the signals that were below ‘expression level’ were removed. The ‘below expression’ level was set at 5 for the log 2 transformed expression values.
Based on the expression pattern of the Control probes on each array it was decided to carry out Median Centering for all arrays before analysis to reduce the variability of the results. […]

“low molecular weight dextran sulfate [LMW-DS]” was tested, and the “cell loss in cultures” value (human motor neurons) was “major cell loss”, the “number of cells in the G2/M phase (PI content)” value (human motor neurons) was “appeared to increase the number of cells in the G2/M phase” and the “proliferation within a population of very small cells” value (human motor neurons) was “small increase in proliferation”. The “MMP-related genes differentially expressed” value [1] was “none”, the “cellular attachment from expression patterns (neurons)” value [1] was “significant inhibition of cellular attachment” and the “downstream effector molecules of GDF7” value [1] was “activated”. For the same substance, the glutamate production [1] was “dis not alter”, the “number of genes differentially expressed, D0 control to the D2 LMW-DS treated samples (second statement)” value [1] was 247 genes and the “number of genes differentially expressed, D0 control vs D2 LMW-DS treated” value [1] was 609 genes. The “number of genes: abolished nutrient effect / no effect” value [1] was 572, the “number of genes: abolished nutrient effect / significant downregulation” value [1] was 7 and the “number of genes: abolished nutrient effect / significant upregulation” value [1] was 33. The “number of genes: abolished nutrient effect / total” value [1] was 612, the “number of genes: enhanced response to nutrients / significant downregulation” value [1] was 158 and the “number of genes: enhanced response to nutrients / significant upregulation” value [1] was 43. For the same substance, the “number of genes: enhanced response to nutrients / total” value [1] was 612, the “number of genes: new effect induced by LMW-DS / no effect” value [1] was 19 and the “number of genes: new effect induced by LMW-DS / significant downregulation” value [1] was 22. The “number of genes: new effect induced by LMW-DS / significant upregulation” value [1] was 7, the “number of genes: new effect induced by LMW-DS / total” value [1] was 48 and the “number of genes: not different from control / significant downregulation” value [1] was 95. For the same substance, the “number of genes: not different from control / significant upregulation” value [1] was 221, the “number of genes: not different from control / total” value [1] was 316 and the “number of genes: total / no effect” value [1] was 591. For the same substance, the “number of genes: total / significant downregulation” value [1] was 282, the “number of genes: total / significant upregulation” value [1] was 304 and the “number of genes: total / total” value [1] was 1177. For the same substance, the “oxidative-stress effects: amyloid-β and Lewy body pathology, mitochondrial dysfunction” value [1] was “able to prevent and reverse most of these deleterious effects”.
